Read-outs that look alike come from different tables or passages of the source.
Tests used:
[1] = molecular target: T1, native CFTR, genotype F508del/F508del (Homo sapiens, UniProt P13569, DEL508-508); test: Ussing chamber CFTR-mediated short-circuit current (Isc) in F508del/F508del human bronchial epithelial cells; type: cell-based; conditions: for EC50: F508del/F508del epithelia of hBE cells, basal F508del‐CFTR expression, Isc, 27°C, read-out: EC50 (μM) (95% CI); for Emax: HBE, read-out: Maximal effect (%) (95% CI)
T1 construct: For functional studies of native CFTR, we used primary cultures of human bronchial epithelial cells; host or cells: primary human bronchial epithelial cells, F508del/F508del, air-liquid interface cultures
T1 sequence (P13569 with tags, fused parts or gaps DEL508-508): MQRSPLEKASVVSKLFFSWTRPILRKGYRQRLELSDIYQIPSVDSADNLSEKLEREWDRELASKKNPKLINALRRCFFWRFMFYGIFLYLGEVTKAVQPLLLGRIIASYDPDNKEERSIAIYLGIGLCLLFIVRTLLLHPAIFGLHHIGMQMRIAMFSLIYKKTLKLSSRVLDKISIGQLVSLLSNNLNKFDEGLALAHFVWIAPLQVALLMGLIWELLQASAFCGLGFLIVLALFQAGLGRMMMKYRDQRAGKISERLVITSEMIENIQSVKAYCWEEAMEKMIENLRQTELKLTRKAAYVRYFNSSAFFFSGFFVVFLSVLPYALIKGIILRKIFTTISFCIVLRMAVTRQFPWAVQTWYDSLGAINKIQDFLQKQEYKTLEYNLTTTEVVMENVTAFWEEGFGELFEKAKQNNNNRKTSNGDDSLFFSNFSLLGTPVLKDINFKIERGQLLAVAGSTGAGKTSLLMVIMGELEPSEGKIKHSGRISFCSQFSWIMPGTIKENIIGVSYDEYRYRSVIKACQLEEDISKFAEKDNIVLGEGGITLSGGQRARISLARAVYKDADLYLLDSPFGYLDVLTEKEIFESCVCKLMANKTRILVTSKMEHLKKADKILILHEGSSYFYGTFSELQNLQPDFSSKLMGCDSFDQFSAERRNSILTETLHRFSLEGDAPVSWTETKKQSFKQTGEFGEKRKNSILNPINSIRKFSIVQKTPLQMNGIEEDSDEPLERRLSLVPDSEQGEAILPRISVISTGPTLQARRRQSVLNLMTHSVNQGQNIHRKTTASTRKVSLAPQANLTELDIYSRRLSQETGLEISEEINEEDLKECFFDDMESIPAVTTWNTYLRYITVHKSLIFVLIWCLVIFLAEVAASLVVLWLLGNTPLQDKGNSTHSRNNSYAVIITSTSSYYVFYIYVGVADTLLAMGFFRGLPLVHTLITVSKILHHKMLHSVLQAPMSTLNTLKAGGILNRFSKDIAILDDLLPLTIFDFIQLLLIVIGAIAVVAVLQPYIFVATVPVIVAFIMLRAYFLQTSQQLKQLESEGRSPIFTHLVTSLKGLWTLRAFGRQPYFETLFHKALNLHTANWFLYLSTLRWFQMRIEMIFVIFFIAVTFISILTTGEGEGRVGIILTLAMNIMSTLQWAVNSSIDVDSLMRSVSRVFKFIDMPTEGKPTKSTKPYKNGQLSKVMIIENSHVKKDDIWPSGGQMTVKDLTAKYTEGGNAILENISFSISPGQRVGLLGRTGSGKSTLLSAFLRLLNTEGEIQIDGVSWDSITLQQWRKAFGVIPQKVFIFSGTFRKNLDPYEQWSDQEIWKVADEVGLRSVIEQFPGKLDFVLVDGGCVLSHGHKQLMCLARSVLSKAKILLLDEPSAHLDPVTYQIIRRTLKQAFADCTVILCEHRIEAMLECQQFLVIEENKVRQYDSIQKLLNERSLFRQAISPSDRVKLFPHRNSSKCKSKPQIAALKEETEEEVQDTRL
Source text: For functional studies of native CFTR, we used primary cultures of human bronchial epithelial cells of genotypes F508del/F508del and F508del/G551D. Passage 1 (P1) human bronchial epithelial cells from SH Randell (University of North Carolina [UNC] Cystic Fibrosis Center Tissue Procurement and Cell Culture Core) were differentiated at an air–liquid interface as described by Neuberger et al., ([2011]) with some modifications. The research conducted on human cells at UNC has been verified as compliant with Pfizer policies, including institutional review board or institutional ethics committee approval. Cells were thawed and expanded in BEGM™ Bronchial Epithelial Cell Growth Medium (cat. no. CC‐3170, Lonza, USA) supplemented with retinoic acid (10 nM) and banked at P2. For functional assays, P2 cells were expanded to P4, and 5 × 10^5 P4 human bronchial epithelial cells were seeded in growth medium on Snapwell filter inserts (cat. no. 3801, Corning, NY, USA). Cells were switched to differentiation medium the following day and cultured submerged for 3 days before the medium was removed from the apical membrane to establish an air–liquid interface. Thereafter, the basolateral medium was changed every 2–3 days and mucus washed from the apical membrane every 2–3 weeks and the day prior to use starting 21 days after initiating air–liquid interface culture.
After >30 days of air–liquid interface culture on Snapwell filter inserts, human bronchial epithelial cells formed well differentiated, electrically tight epithelia (Rt > 200 Ω cm^2). Prior to study, F508del/F508del and F508del/G551D human bronchial epithelial cell cultures were incubated at 37°C and 5% CO2.
Epithelia were mounted in Ussing chambers and data acquired and analysed as described above for Ussing chamber studies of FRT cells heterologously expressing CFTR with the following exceptions. Both the apical and basolateral membranes were bathed in solutions containing (mM): 137 NaCl, 4 KCl, 1.8 CaCl2, 1 MgCl2, 10 Na HEPES, and 10 glucose (pH 7.4 with NaOH). Epithelia of F508del/G551D human bronchial epithelial cells were studied at 35°C, whereas those of F508del/F508del human bronchial epithelial cells were assayed at 27°C to maintain the apical membrane expression of F508del‐CFTR. After cancelling voltage offsets, transepithelial voltage was clamped at 0 mV and short‐circuit current (Isc) recorded continuously. The protocol to record CFTR‐mediated Isc was the same as for ICl ^apical measurements except that amiloride (30 μM, apical solution) was added to inhibit the epithelial Na^+ channel before forskolin (10 μM, apical and basolateral solutions) addition.

[2] = molecular target: F508del‐CFTR (Homo sapiens, UniProt P13569, DEL508-508); test: Single-channel recording in excised inside-out membrane patches, F508del‐CFTR; type: biochemical; parameters: expressed in transfected cells; BHK cells from MD Amaral; conditions: for reduction of interburst interval (IBI): single active channel; for Emax: read-out: Maximal effect (%) (95% CI)
Sequence of F508del‐CFTR (P13569 with tags, fused parts or gaps DEL508-508): as above
Protocol: For CFTR studies using automated electrophysiology and single-channel recording, we used baby hamster kidney (BHK) cells (RRID:CVCL_1915) and human embryonic kidney (HEK) 293 cells (RRID:CVCL_0045) stably expressing wild-type human CFTR and the CFTR variants F508del- and […] et al., [2002]; Xu et al., [2014]). […] HEK cells expressing CFTR variants were generated using the Flp-InTM system as described above for F508del- and G551D-CFTR-expressing FRT cells. They were cultured in Dulbecco's modified Eagle's medium (glucose, 1.5 g·L^-1; sodium pyruvate, 110 mg·L^-1) supplemented with 10% FBS (PAA Laboratories), GlutaMAXTM and hygromycin-B (150 μg·ml^-1; InvitrogenTM, Thermo Fisher Scientific) at 37°C in a humidified atmosphere with 5% CO2. Prior to study, F508del-CFTR expressed in HEK cells was trafficked to the plasma membrane by low temperature incubation (27°C for 24-72 h). […] CFTR Cl^- channels were recorded in excised inside-out membrane patches using an Axopatch 200B patch-clamp amplifier and pCLAMP software (version 10.3) (RRID:SCR_011323) (both from Molecular Devices, San Jose, CA, USA) (Sheppard & Robinson, [1997]). […] Within 2 min after membrane patch excision, we added the catalytic subunit of protein kinase A (PKA; 75 nM) and ATP (1 mM) to the intracellular solution to activate CFTR Cl^- channels. To minimise channel rundown, we added PKA and millimolar concentrations of ATP to all intracellular solutions and clamped voltage at -50 mV. […] We reduced the ATP concentration when testing CFTR potentiators on wild-type CFTR to observe their effects more clearly. […] Instead, specific interventions with CFTR potentiators were compared with the pre-intervention control period made with the same concentration of ATP and PKA, but without test compounds. […] To determine channel number, we used the maximum number of simultaneous channel openings observed during an experiment (Cai et al., [2006]). To minimise errors, we used experimental conditions that robustly potentiate channel activity and verified that recordings were of sufficient length to ascertain the correct number of channels ([…] et al., [1994]). […] Therefore, Po values for G551D-CFTR are expressed as apparent Po (Po(app)) values. Single-channel currents were directly acquired to a computer hard disc after filtering at a corner frequency (f c) of 500 Hz with an eight-pole Bessel filter (model LHBF-48×; npi electronic GmbH, Tamm, Germany) and digitising at a sampling rate of 5 kHz using a Digidata 1440A interface (Molecular Devices) and pCLAMP software. To measure single-channel current amplitude (i), Gaussian distributions were fit to current amplitude histograms. For Po and burst analyses, lists of open- and closed-times were created using a half-amplitude crossing criterion for event detection and dwell-time histograms constructed as previously described (Sheppard & Robinson, [1997]); transitions < 1 ms were excluded from the analysis (eight-pole Bessel filter rise time [T 10-90] ~ 0.73 ms at f c = 500 Hz). Histograms were fitted with one or more component exponential functions using the maximum likelihood method. […] The mean interburst interval (TIBI) was calculated using the equation (Cai et al., [2006]): (1) Po=Tb/TMBD+TIBI, where T b = (mean burst duration) × (open probability within a burst). Mean burst duration (T MBD) and open probability within a burst (Po[burst]) were determined directly from experimental data using pCLAMP software.

[3] = F508del‐CFTR Cl− channels, excised inside-out patches, 23°C, data normalised to ivacaftor 1 μM, read-out: EC50 (μM) (95% CI)
[4] = low temperature-rescued F508del‐CFTR, ATP 1 mM, PKA 75 nM, ~23°C
[5] = low temperature-rescued F508del‐CFTR, ATP 1 mM, PKA 75 nM, ~23°C, read-out: EC50 for potentiation of Po
[6] = low temperature-rescued F508del‐CFTR, compound 1 μM, ATP 1 mM
[7] = low temperature-rescued F508del‐CFTR, compound 10 μM, ATP 1 mM

Compound | EC50 [1] | Emax [1] | EC50 [2, 3] | Po max [2, 4] | EC50 [2, 5] | enhancement of Po [2, 6] | reduction of interburst interval (IBI) [2, 6] | Emax [2] | Po max of ATP-dependence in presence of compound ([2]; low temperature-rescued F508del‐CFTR, compound 300 nM, ATP 0.1–3 mM) | enhancement of Po [2, 7] | reduction of interburst interval (IBI) [2, 7]
CC(C)(C)c1cc(C(C)(C)C)c(NC(=O)c2c[nH]c3ccccc3c2=O)cc1O [ivacaftor, reference compound] | 0.002 µM | 102% | 0.008 µM | 0.51 | 0.01 µM | 9 ± 5 fold | 15 fold | 103% |  |  | 
Cc1ncccc1CNC(=O)c1ccc2c(c1)CC[C@H]1C[C@](O)(CCC(F)(F)F)CC[C@]21Cc1ccccc1 (racemic) [CP‐628006, rac‐(4bR,7R,8aS)‐4b‐benzyl‐7‐hydroxy‐N‐((2‐methylpyridin‐3‐yl)methyl)‐7‐(3,3,3‐trifluoropropyl)‐4b,5,6,7,8,8a,9,10‐octahydrophenanthrene‐2‐carboxamide] | 0.062 µM | 56% | 0.5 µM | 0.62 | 0.4 µM |  |  | 144% | 0.33 | 13 ± 5 fold | 15 fold
